Assay results taken from PubChem BioAssay (NCI).
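These data come from cells grown in 96-well plates and exposed to compound for 48 hours at five concentrations. The concentration for full growth arrest is given as TGI.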

Tested on: TK-10 renal
Assay: inhibition of tumour cell growth, NCI panel, 48 h

Compound | TGI [µM]
CC12CCC3C(CCC4CC(OC(=O)Cc5ccc(N(CCCl)CCCl)cc5)CCC43C)C1CCC(=O)N2 (centres undefined) | 35.5
CCN(CC)CCCNC(=O)c1ccc([N+](=O)[O-])cc1O | > 100
CN(Cc1ccccc1)c1cc(=O)n(C)c(=O)[nH]1 | > 100
COc1cc2c(cc1OC)[C@H]1CN3CCC[C@H]3C=C1c1ccc(OC)c(O)c1-2 | 0.114
C=Cc1ccc(C)[n+](C[Si](C)(C)O[Si](C)(C)C[n+]2cc(C=C)ccc2C)c1 | > 100
Oc1[nH]c2ccc(Br)cc2c1N=NC(=S)Nc1ccc(F)cc1 | 23.8
O=c1[nH]cnc(NC2C=C(CO)C(O)C2O)c1[N+](=O)[O-] (centres undefined) | > 100
CCOC(=O)C1(C(=O)OCC)COS(=O)OC1 | > 100
O=C(NC(COC(=O)C(Cc1ccccc1)NC(=O)c1ccccc1)Cc1ccccc1)c1ccccc1 (centres undefined) | > 50
CC(=O)OCC1OC(n2cc(I)c(=O)[nH]c2=O)C(OC(C)=O)C(OC(C)=O)C1OC(C)=O (centres undefined) | > 100
CC(O)CCCOC(c1ccccc1)(c1ccccc1)c1ccccc1 (centres undefined) | 30.6
CC(C(=O)N1C(=O)N(C(=O)C(C)C(O)c2ccccc2)C2CCCCC21)C(O)c1ccccc1 (centres undefined) | > 100
O=C1NCCS(=O)(=O)N[C@@H](CC2=CC=CCC2)C(=O)N2CCCC12 (some centres undefined) | > 100
CC(C)=CCC/C(C)=C/COC(C)(C)C1=CCC(C)CC1 (centres undefined) (tested in a mixture with another compound) | > 100
O=[N+]([O-])c1ccc(/C=C/c2cc(-c3ccccc3)nc3ccc4ccccc4c23)cc1 | > 100
Cc1cc(-c2nc3ccccc3s2)ccc1NC(=O)[C@@H](N)CCCCN | 23.2
CCCCn1cnc2c(c(CC#N)nn2-c2ccccc2)c1=N | > 100
COc1ccc(-c2oc(/C=N/NC(N)=S)c([N+](=O)[O-])c2-c2ccc(OC)c(OC)c2)cc1OC | > 100
COc1c(O)c2c3c(c(C)cc(O)c3c1O)C(=O)C(O)(C(C)(C)C(C)=O)C2=O (centres undefined) | > 100
Nc1nc(N)c(N=O)c(Nc2ccc(Br)cc2)n1 | 70.4
O=C(CNc1c(Cl)cccc1Cl)NC1C=Cc2ccc(S(=O)(=O)Nc3c(Cl)cccc3Cl)cc2C1=O (centres undefined) | > 100
C[C@]12CC[C@@H]3c4ccc(O)cc4CC[C@H]3[C@@H]1C/C(=C\c1ccncc1)[C@@H]2O | > 100
S=C(/N=c1\sc(Nc2ccc(Cl)cc2)nc2sc3c(c12)CCN(N1CCc2c(sc4nc(Nc5ccc(Cl)cc5)s/c(=N\C(=S)Nc5ccc(Cl)cc5)c24)C1)C3)Nc1ccc(Cl)cc1 | > 100
O=C(Oc1cc(=O)c(OC(=O)c2ccccc2)co1)c1ccccc1 | > 100
CCC1=CC2CN3Cn4c(c(COCc5c6n(c7ccccc57)CN5CC7C=C(CC)C5C6(C(=O)OC)C7)c5ccccc54)C(C(=O)OC)(C2)C13 | > 100
O=C(Cc1ccccc1)NN1C(=O)/C(=C\c2ccccc2)SC1=Nc1ccccc1 | > 100
COc1ccc(CC2c3c(cc(OC)c(OC)c3OC)CCN2C)cc1OC (centres undefined) | > 100

Tested on: MOLT-4 leukemia
Assay: inhibition of tumour cell growth, NCI panel, 48 h

Compound | TGI [µM]
CC12CCC3C(CCC4CC(OC(=O)Cc5ccc(N(CCCl)CCCl)cc5)CCC43C)C1CCC(=O)N2 (centres undefined) | 24.4
CCN(CC)CCCNC(=O)c1ccc([N+](=O)[O-])cc1O | > 100
CN(Cc1ccccc1)c1cc(=O)n(C)c(=O)[nH]1 | > 100
Cc1cn([C@@H]2C[C@H](CO)[C@@H](O)C2)c(=O)[nH]c1=O | > 100
C=Cc1ccc(C)[n+](C[Si](C)(C)O[Si](C)(C)C[n+]2cc(C=C)ccc2C)c1 | > 100
Oc1[nH]c2ccc(Br)cc2c1N=NC(=S)Nc1ccc(F)cc1 | 29.6
O=c1[nH]cnc(NC2C=C(CO)C(O)C2O)c1[N+](=O)[O-] (centres undefined) | > 100
CCOC(=O)C1(C(=O)OCC)COS(=O)OC1 | 56.4
O=C(NC(COC(=O)C(Cc1ccccc1)NC(=O)c1ccccc1)Cc1ccccc1)c1ccccc1 (centres undefined) | > 50
CC(=O)OCC1OC(n2cc(I)c(=O)[nH]c2=O)C(OC(C)=O)C(OC(C)=O)C1OC(C)=O (centres undefined) | > 100
CC(O)CCCOC(c1ccccc1)(c1ccccc1)c1ccccc1 (centres undefined) | > 50.9
Cc1ccc([N+](=O)[O-])cc1N=NC(=O)NNc1cc([N+](=O)[O-])ccc1C | 41
CC(C(=O)N1C(=O)N(C(=O)C(C)C(O)c2ccccc2)C2CCCCC21)C(O)c1ccccc1 (centres undefined) | 87.1
O=C1NCCS(=O)(=O)N[C@@H](CC2=CC=CCC2)C(=O)N2CCCC12 (some centres undefined) | > 100
CC(C)=CCC/C(C)=C/COC(C)(C)C1=CCC(C)CC1 (centres undefined) (tested in a mixture with another compound) | 36.2
O=[N+]([O-])c1ccc(/C=C/c2cc(-c3ccccc3)nc3ccc4ccccc4c23)cc1 | > 100
Cc1cc(-c2nc3ccccc3s2)ccc1NC(=O)[C@@H](N)CCCCN | 17.1
CCCCn1cnc2c(c(CC#N)nn2-c2ccccc2)c1=N | > 100
CCN1CCCC(NCc2c3ccccc3c(CNC3CCCN(CC)C3)c3ccccc23)C1 (centres undefined) | 14.8
COc1c(O)c2c3c(c(C)cc(O)c3c1O)C(=O)C(O)(C(C)(C)C(C)=O)C2=O (centres undefined) | > 100
O=C(CNc1c(Cl)cccc1Cl)NC1C=Cc2ccc(S(=O)(=O)Nc3c(Cl)cccc3Cl)cc2C1=O (centres undefined) | > 100
C[C@]12CC[C@@H]3c4ccc(O)cc4CC[C@H]3[C@@H]1C/C(=C\c1ccncc1)[C@@H]2O | 40.8
S=C(/N=c1\sc(Nc2ccc(Cl)cc2)nc2sc3c(c12)CCN(N1CCc2c(sc4nc(Nc5ccc(Cl)cc5)s/c(=N\C(=S)Nc5ccc(Cl)cc5)c24)C1)C3)Nc1ccc(Cl)cc1 | > 100
O=C(Oc1cc(=O)c(OC(=O)c2ccccc2)co1)c1ccccc1 | > 100
CCC1=CC2CN3Cn4c(c(COCc5c6n(c7ccccc57)CN5CC7C=C(CC)C5C6(C(=O)OC)C7)c5ccccc54)C(C(=O)OC)(C2)C13 | > 100
O=C(Cc1ccccc1)NN1C(=O)/C(=C\c2ccccc2)SC1=Nc1ccccc1 | > 100
COc1ccc(CC2c3c(cc(OC)c(OC)c3OC)CCN2C)cc1OC (centres undefined) | > 100
